Assay results as given in ChEMBL document CHEMBL3045330, “Antimicrobial and anticancer effects of some 2-(substitutedsulfanyl)-N-(5-methyl-isoxazol-3-yl)acetamide derivatives” (Med Chem Res, 2013).
In brackets after ≈: the same amount, converted by molar mass.

How the values were obtained:
[1] = system: Candida albicans; test: Antifungal activity against Candida albicans assessed as growth inhibition by CLSI broth microdilution method; assay type: functional
[2] = system: Pseudomonas aeruginosa; test: Antibacterial activity against Pseudomonas aeruginosa ATCC 254992 assessed as growth inhibition by CLSI broth microdilution method; assay type: functional
[3] = system: Escherichia coli; test: Antibacterial activity against Escherichia coli ATCC 25922 assessed as growth inhibition by CLSI broth microdilution method; assay type: functional
[4] = system: Enterococcus faecalis; test: Antibacterial activity against Enterococcus faecalis ATCC 29212 assessed as growth inhibition by CLSI broth microdilution method; assay type: functional
[5] = system: Staphylococcus aureus; test: Antibacterial activity against Staphylococcus aureus NRRL B-767 assessed as growth inhibition by CLSI broth microdilution method; assay type: functional
[6] = system: C6; test: Cytotoxicity against Rattus norvegicus (rat) C6 cells assessed as cell viability after 24 hr by MTT assay; assay type: functional, cell-based; conditions: C6, 24 h
[7] = system: HT-29; test: Cytotoxicity against Homo sapiens (human) HT-29 cells assessed as cell viability after 24 hr by MTT assay; assay type: functional, cell-based; conditions: HT-29, 24 h
[8] = system: C6; test: Inhibition of nuclear DNA synthesis in Rattus norvegicus (rat) C6 cells assessed as decrease in incorporation of bromo deoxyuridine during S phase of cell cycle at 0.8 to 3.2 uM by colorimetric method; assay type: cell-based; conditions: TDE = time-dependent effect
[9] = system: HT-29; test: Inhibition of nuclear DNA synthesis in Homo sapiens (human) HT-29 cells assessed as decrease in incorporation of bromo deoxyuridine during S phase of cell cycle at 0.8 to 3.2 uM by colorimetric method; assay type: cell-based; conditions: TDE = time-dependent effect
[10] = system: C6; test: Inhibition of nuclear DNA synthesis in Rattus norvegicus (rat) C6 cells assessed as decrease in incorporation of bromo deoxyuridine during S phase of cell cycle after 24 to 48 hr by colorimetric method; assay type: cell-based
[11] = system: HT-29; test: Inhibition of nuclear DNA synthesis in Homo sapiens (human) HT-29 cells assessed as decrease in incorporation of bromo deoxyuridine during S phase of cell cycle after 24 to 48 hr by colorimetric method; assay type: cell-based
[12] = system: HT-29; test: Inhibition of nuclear DNA synthesis in Homo sapiens (human) HT-29 cells assessed as decrease in incorporation of bromo deoxyuridine during S phase of cell cycle at 3.2 uM after 48 hr by colorimetric method relative to untreated control; assay type: cell-based
[13] = system: C6; test: Inhibition of nuclear DNA synthesis in Rattus norvegicus (rat) C6 cells assessed as decrease in incorporation of bromo deoxyuridine during S phase of cell cycle at 3.2 uM after 24 hr by colorimetric method relative to untreated control; assay type: cell-based
[14] = system: C6; test: Inhibition of nuclear DNA synthesis in Rattus norvegicus (rat) C6 cells assessed as decrease in incorporation of bromo deoxyuridine during S phase of cell cycle at 3.2 uM after 48 hr by colorimetric method relative to untreated control; assay type: cell-based

SMILES	MIC [1]	MIC [2]	MIC [3]	MIC [4]	MIC [5]	IC50 [6]	IC50 [7]	inhibition [8]	inhibition [9]	inhibition [10]	inhibition [11]	inhibition [12]	inhibition [13]	inhibition [14]
Cc1cc(NC(=O)CSc2ccccc2)no1	200 µg/mL (≈ 805 µM)	200 µg/mL (≈ 805 µM)	400 µg/mL (≈ 1610 µM)	400 µg/mL (≈ 1610 µM)	200 µg/mL (≈ 805 µM)	–	–	–	–	–	–	–	–	–
O=C(N[C@H](CO)[C@H](O)c1ccc([N+](=O)[O-])cc1)C(Cl)Cl [CHLORAMPHENICOL]	–	50 µg/mL (≈ 155 µM)	100 µg/mL (≈ 309 µM)	100 µg/mL (≈ 309 µM)	50 µg/mL (≈ 155 µM)	–	–	–	–	–	–	–	–	–
Cc1cc(NC(=O)CSc2nnnn2-c2ccccc2)no1	100 µg/mL (≈ 316 µM)	100 µg/mL (≈ 316 µM)	400 µg/mL (≈ 1260 µM)	400 µg/mL (≈ 1260 µM)	200 µg/mL (≈ 632 µM)	640 nM	740 nM	–	–	–	–	–	–	–
Cc1cc(NC(=O)CSc2nc3ccccc3s2)no1	200 µg/mL (≈ 655 µM)	200 µg/mL (≈ 655 µM)	400 µg/mL (≈ 1310 µM)	400 µg/mL (≈ 1310 µM)	200 µg/mL (≈ 655 µM)	210 nM	400 nM	tde	tde	Dose-dependent effect	Dose-dependent effect	–	–	–
CC(=O)N1CCN(c2ccc(OCC3COC(Cn4ccnc4)(c4ccc(Cl)cc4Cl)O3)cc2)CC1 (stereo not given) [KETOCONAZOLE]	100 µg/mL (≈ 188 µM)	–	–	–	–	–	–	–	–	–	–	–	–	–
Cc1cc(NC(=O)CSc2nnc(C)s2)no1	100 µg/mL (≈ 370 µM)	200 µg/mL (≈ 740 µM)	400 µg/mL (≈ 1480 µM)	400 µg/mL (≈ 1480 µM)	200 µg/mL (≈ 740 µM)	580 nM	670 nM	–	–	–	–	–	–	–
Cc1cc(NC(=O)CSc2nc3ccccc3[nH]2)no1	200 µg/mL (≈ 694 µM)	200 µg/mL (≈ 694 µM)	400 µg/mL (≈ 1390 µM)	400 µg/mL (≈ 1390 µM)	200 µg/mL (≈ 694 µM)	100 nM	90 nM	tde	tde	Dose-dependent effect	Dose-dependent effect	80%	> 50%	70%
Cc1cc(NC(=O)CSc2nc[nH]n2)no1	100 µg/mL (≈ 418 µM)	100 µg/mL (≈ 418 µM)	400 µg/mL (≈ 1670 µM)	400 µg/mL (≈ 1670 µM)	200 µg/mL (≈ 836 µM)	3190 nM	1130 nM	–	–	–	–	–	–	–
Cc1cc(NC(=O)CSc2nnnn2C)no1	100 µg/mL (≈ 393 µM)	100 µg/mL (≈ 393 µM)	400 µg/mL (≈ 1570 µM)	400 µg/mL (≈ 1570 µM)	200 µg/mL (≈ 787 µM)	1210 nM	–	–	–	–	–	–	–	–
Cc1cc(NC(=O)CSc2nc3ccccc3o2)no1	200 µg/mL (≈ 691 µM)	200 µg/mL (≈ 691 µM)	400 µg/mL (≈ 1380 µM)	400 µg/mL (≈ 1380 µM)	200 µg/mL (≈ 691 µM)	440 nM	220 nM	tde	tde	Dose-dependent effect	Dose-dependent effect	80%	> 50%	70%
Cc1cc(NC(=O)CSc2nncn2C)no1	100 µg/mL (≈ 395 µM)	100 µg/mL (≈ 395 µM)	400 µg/mL (≈ 1580 µM)	400 µg/mL (≈ 1580 µM)	200 µg/mL (≈ 790 µM)	1470 nM	1020 nM	–	–	–	–	–	–	–
Cc1cc(NC(=O)CSc2nccn2C)no1	100 µg/mL (≈ 396 µM)	200 µg/mL (≈ 793 µM)	400 µg/mL (≈ 1590 µM)	400 µg/mL (≈ 1590 µM)	200 µg/mL (≈ 793 µM)	1410 nM	1130 nM	–	–	–	–	–	–	–
